Read-outs that look alike come from different tables or passages of the source.
Columns and labels:
IMP-1 = IMP-1 (Serratia marcescens, UniProt P52699); experiment: biochemical; format: biochemical
Method in brief: (§1)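 IC50 values derive from 4-parameter fits of percent inhibition against inhibitor concentration on semi-log axes. Activity was monitored by fluorescence with the CCF2-FA substrate after a 2-hour, 25° C incubation of compound, enzyme and substrate.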

NDM-1 = NDM-1 (Klebsiella pneumoniae, UniProt C7C422); experiment: biochemical; format: biochemical; settings: CCF2-FA substrate, 2 hours at 25° C; read-out: NDM-1 IC50
Method in brief: as §1

VIM-1 = VIM-1 (Pseudomonas aeruginosa (strain ATCC 15692 / DSM 22644 / CIP 104116 / JCM 14847 / LMG 12228 / 1C / PRS 101 / PAO1), UniProt A0A0F7KYQ8); experiment: biochemical; settings: CCF2-FA substrate, 2 hours at 25° C
Method in brief: as §1

[1] = system: Escherichia coli expressing NDM-1 (CLB30005, CLB30016); format: cell-based; settings: NDM-1 (CLB30016), with imipenem 1 μg/ml, 95% inhibition of bacterial growth
Method in brief: (§2)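 Restoration of imipenem susceptibility (1 μg/ml imipenem) was judged by absorbance after 22–24 h at 35° C. Test compound was added to bacteria suspended 1:100 in 1.1× CAMHB from overnight blood-agar cultures.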

[2] = system: Klebsiella pneumoniae expressing VIM-1 (IHMA599644); format: cell-based; settings: VIM-1 (IHMA599644), with imipenem 1 μg/ml, 95% inhibition of bacterial growth
Method in brief: as §2

[3] = system: Serratia marcescens expressing IMP-1 (CL5741); format: cell-based; settings: IMP-1 (CL5741), with imipenem 1 μg/ml, 95% inhibition of bacterial growth
Method in brief: as §2

[4] = system: P. aeruginosa expressing IMP-1, efflux+ (MB9798); format: cell-based, Pseudomonas aeruginosa; settings: for P. aeruginosa expressing IMP-1, efflux+ (MB9798) MITC95: imipenem at 2 μg/mL, in the presence of a class A, C, D serine β-lactamase inhibitor closely related to relebactam; for Efflux ratio: ratio MITC95 PA_9798/MITC95 PA_9799
Source text: (§3) The strain background is Pseudomonas aeruginosa PAO1.

[5] = system: P. aeruginosa expressing IMP-1, efflux− (MB9799); experiment: Efflux: concentration of MBL inhibitor which restores susceptibility to imipenem; format: cell-based, Pseudomonas aeruginosa; settings: imipenem at 2 μg/mL, in the presence of a class A, C, D serine β-lactamase inhibitor closely related to relebactam
Source text: as §3

[6] = CCF2-FA substrate, 2 hours at 25° C, read-out: IMP-1 IC50

Sequence of IMP-1 (P52699 whole entry, looked up, species assumed): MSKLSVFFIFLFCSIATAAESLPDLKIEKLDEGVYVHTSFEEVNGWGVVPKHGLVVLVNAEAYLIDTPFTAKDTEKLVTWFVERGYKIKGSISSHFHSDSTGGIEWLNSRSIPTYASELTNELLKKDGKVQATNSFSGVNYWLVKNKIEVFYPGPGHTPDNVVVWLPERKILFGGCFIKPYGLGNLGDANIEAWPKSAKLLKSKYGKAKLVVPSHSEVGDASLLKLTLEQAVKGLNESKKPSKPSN
Sequence of NDM-1 (C7C422 whole entry, looked up, species assumed): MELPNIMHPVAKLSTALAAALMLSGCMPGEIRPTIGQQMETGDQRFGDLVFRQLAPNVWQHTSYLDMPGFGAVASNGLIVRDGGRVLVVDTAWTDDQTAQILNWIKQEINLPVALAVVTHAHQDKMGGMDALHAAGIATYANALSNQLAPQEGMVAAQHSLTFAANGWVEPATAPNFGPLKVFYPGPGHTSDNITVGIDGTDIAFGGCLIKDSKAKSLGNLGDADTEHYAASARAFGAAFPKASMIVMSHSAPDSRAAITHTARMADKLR

SMILES	IC50 (IMP-1; [6])	IC50 (NDM-1)	IC50 (VIM-1)	Escherichia coli MITC95 [1]	Klebsiella pneumoniae MITC95 [2]	Serratia marcescens MITC95 [3]	P. aeruginosa expressing IMP-1, efflux+ (MB9798) MITC95 [4]	Efflux ratio [4]	P. aeruginosa expressing IMP-1, efflux− (MB9799) MITC95 [5]	IC50 (IMP-1)
Nc1cc(-c2cc(-c3ccc(S(=O)(=O)C4CNC4)c(S(N)(=O)=O)c3-c3nnn[nH]3)ccn2)ccn1 [Example 311, 3-(2′-amino-[2,4′-bipyridin]-4-yl)-6-(azetidin-3-ylsulfonyl)-2-(1H-tetrazol-5-yl)benzenesulfonamide]	2320 pM	922 pM	315 pM	3.125 µM	3.125 µM	1.563 µM	50 µM	31.99	1.563 µM	
NC[C@@H](O)CS(=O)(=O)c1ccc(-c2cccc3[nH]c(N)nc23)c(-c2nn[nH]n2)c1S(N)(=O)=O [Example 312, 3-(2-amino-1H-benzo[d]imidazol-4-yl)-6-((R)-3-amino-2-hydroxypropylsulfonyl)-2-(2H-tetrazol-5-yl)benzenesulfonamide]	430 pM	120 pM	389 pM	0.3477 µM	0.8542 µM	0.5573 µM	0.2786 µM	0.50	0.5573 µM	
NCCS(=O)(=O)c1ccc(-c2cccc3sc(N)nc23)c(-c2nn[nH]n2)c1S(N)(=O)=O [Example 313, 3-(2-aminobenzo[d]thiazol-4-yl)-6-((2-aminoethyl)sulfonyl)-2-(2H-tetrazol-5-yl)benzenesulfonamide]	257 pM	155 pM	232 pM	1.618 µM	2.009 µM	1.228 µM	0.6138 µM	0.69	0.8929 µM	
Nc1nc2c(-c3ccc(S(=O)(=O)CCO)c(S(N)(=O)=O)c3-c3nn[nH]n3)cccc2s1 [Example 314, 3-(2-aminobenzo[d]thiazol-4-yl)-6-((2-hydroxyethyl)sulfonyl)-2-(2H-tetrazol-5-yl)benzenesulfonamide]	445 pM	379 pM	726 pM	12.5 µM	12.5 µM	6.25 µM	12.5 µM	2.00	6.25 µM	
Nc1nc2c(-c3ccc(S(=O)(=O)C4CCNCC4)c(S(N)(=O)=O)c3-c3nn[nH]n3)cccc2s1 [Example 315, 3-(2-aminobenzo[d]thiazol-4-yl)-6-(piperidin-4-ylsulfonyl)-2-(2H-tetrazol-5-yl)benzenesulfonamide]		113 pM	251 pM	1.563 µM	3.125 µM	1.563 µM	0.7813 µM	1.00	0.7813 µM	249 pM
Nc1nc2c(-c3ccc(S(=O)(=O)C4CCNCC4)c(S(N)(=O)=O)c3-c3nn[nH]n3)cccc2[s+]1[O-] (stereo not drawn) [Example 316, 3-(2-amino-1-oxidobenzo[d]thiazol-4-yl)-6-(piperidin-4-ylsulfonyl)-2-(2H-tetrazol-5-yl)benzenesulfonamide]	835 pM	284 pM	779 pM	6.25 µM	12.5 µM	12.5 µM	6.25 µM	1.00	6.25 µM	
Nc1nc2c(-c3ccc(S(=O)(=O)C4CNC4)c(S(N)(=O)=O)c3-c3nn[nH]n3)cccc2s1 [Example 317, 3-(2-aminobenzo[d]thiazol-4-yl)-6-(azetidin-3-ylsulfonyl)-2-(2H-tetrazol-5-yl)benzenesulfonamide]	227 pM	31.2 pM	189 pM	1.172 µM	1.563 µM	0.7813 µM	0.7813 µM	1.00	0.7813 µM	
NS(=O)(=O)c1c(S(=O)(=O)C2CCNCC2)ccc(-c2cccc3c2CNC3=O)c1-c1nn[nH]n1 [Example 318, 3-(1-oxoisoindolin-4-yl)-6-(piperidin-4-ylsulfonyl)-2-(2H-tetrazol-5-yl)benzenesulfonamide]	27100 pM	1950 pM	517 pM	12.5 µM	12.5 µM	25 µM	25 µM	4.00	6.25 µM	
Nc1nc2c(-c3ccc(S(=O)(=O)CCO)c(S(N)(=O)=O)c3-c3nn[nH]n3)cccc2c[n+]1[O-] [Example 319, 2-amino-8-(4-((2-hydroxyethyl)sulfonyl)-3-sulfamoyl-2-(2H-tetrazol-5-yl)phenyl)quinazoline 3-oxide]	1920 pM	194 pM	407 pM	100 µM	50 µM	25 µM	25 µM	2.00	12.5 µM	
NS(=O)(=O)c1c(S(=O)(=O)CCO)ccc(-c2cccc3c2ccc[n+]3[O-])c1-c1nn[nH]n1 [Example 320, 5-(4-((2-hydroxyethyl)sulfonyl)-3-sulfamoyl-2-(2H-tetrazol-5-yl)phenyl)quinoline 1-oxide]	1060 pM	939 pM	208 pM	50 µM	12.5 µM	25 µM	25 µM	4.00	6.25 µM	
NCCS(=O)(=O)c1ccc(-c2ccc(N)nc2)c(-c2nn[nH]n2)c1S(N)(=O)=O [Example 321, 6-((2-aminoethyl)sulfonyl)-3-(6-aminopyridin-3-yl)-2-(2H-tetrazol-5-yl) benzenesulfonamide]	949 pM	1360 pM	1010 pM	0.125 µM	1.281 µM	0.4453 µM	1.781 µM	2.78	0.6406 µM	
NCCS(=O)(=O)c1ccc(-c2ccc(C3CCNCC3)cc2)c(-c2nn[nH]n2)c1S(N)(=O)=O [Example 322, 4-((2-aminoethyl)sulfonyl)-4′-(piperidin-4-yl)-2-(2H-tetrazol-5-yl)-[1,1′-biphenyl]-3-sulfonamide]	170 pM	731 pM	205 pM	1.563 µM	3.125 µM	1.563 µM	1.563 µM	2.00	0.7813 µM	
NCCS(=O)(=O)c1ccc(-c2cccc3cc(C(N)=O)[nH]c23)c(-c2nn[nH]n2)c1S(N)(=O)=O [Example 323, 7-(4-((2-aminoethyl)sulfonyl)-3-sulfamoyl-2-(2H-tetrazol-5-yl)phenyl)-1H-indole-2-carboxamide]	146 pM	51.3 pM	214 pM	3.125 µM	1.563 µM	1.563 µM	0.7813 µM	1.00	0.7813 µM	
NCCS(=O)(=O)c1ccc(-c2cccc3ncccc23)c(-c2nn[nH]n2)c1S(N)(=O)=O [Example 324, 6-((2-aminoethyl)sulfonyl)-3-(quinolin-5-yl)-2-(2H-tetrazol-5-yl) benzenesulfonamide]	550 pM	222 pM	139 pM	1.563 µM	3.125 µM	1.563 µM	6.25 µM	8.00	0.7813 µM	
